Reference: US7872003B2, “Pharmaceutical compounds” (F. Hoffmann-La Roche AG, priority 2005, dated 2011)

Tested on: Caco-2 cells
Experiment: Caco-2 permeability
Type: in vitro ADME
Details: bidirectional Caco-2 assay; values >/=1.0 indicate active cellular efflux
Experimental: (iii) Caco-2 Permeability
Caco-2 cells were seeded onto Millipore Multiscreen plates at 1×10^5 cells/cm^2, and were cultured for 20 days. Assessment of compound permeability was subsequently conducted. The compounds were applied to the apical surface (A) of cell monolayers and compound permeation into the basolateral (B) compartment was measured. This was performed in the reverse direction (B−A) to investigate active transport. A permeability coefficient value, Papp, for each compound, a measure of the rate of permeation of the compound across the membrane, was calculated. Compounds were grouped into low (Papp</=[…]) or high (Papp>/=[…]) absorption potential based on comparison with control compounds with established human absorption.
For assessment of a compound's ability to undergo active efflux, the ratio of basolateral (B) to apical (A) transport compared with A to B was determined. Values of B−A/A−B>/=1.0 indicated the occurrence of active cellular efflux. All of the compounds tested through the Caco-2 permeability screen had Papp values>/=1.0×10^6 cm/s.

- B−A/A−B asymmetry index: less than 1.0
Compound: CN1CCN(Cc2cc3nc(-c4cccc(O)c4)nc(N4CCOCC4)c3s2)CC1 [PI540]
